Values of other authors as cited in patent publication US20260007589A1, “METHOD FOR DYEING KERATINOUS MATERIAL COMPRISING THE USE OF AN ORGANOSILICON COMPOUND, AN EFFECT PIGMENT, AND A FILM-FORMING POLYMER III” (Henkel AG & Co. KGaA, priority 2019, published 2026).
Where two headings read alike, the source gives them in different places.

Compound | solubility in water (25° C.) | solubility in water (at 25° C.)
CCN(Cc1cccc(S(=O)(=O)[O-])c1)c1ccc(C(=C2C=CC(=[N+](CC)Cc3cccc(S(=O)(=O)[O-])c3)C=C2)c2ccccc2S(=O)(=O)[O-])cc1.[Na+].[Na+] [Acid Blue 9] | more than 20 % by weight | 
O=S(=O)([O-])c1ccc(N=Nc2c(O)ccc3ccccc23)cc1.[Na+] [Acid Orange 7, sodium salt of 4-[(2-hydroxy-1-naphthyl)azo]benzene sulphonate] | more than 7 g/L | 
Nc1cc(S(=O)(=O)[O-])cc2cc(S(=O)(=O)[O-])c(N=Nc3ccccc3)c(O)c12.[Na+].[Na+] [Acid Red 33, disodium salt of 5-amino-4-hydroxy-3-(phenylazo)-naphthalene-2,7-disulphonate] | 2.5 g/L | 
O=C([O-])c1c(Cl)c(Cl)c(Cl)c(Cl)c1-c1c2c(Br)cc(=O)c(Br)c-2oc2c(Br)c(O)cc(Br)c12.O=C([O-])c1c(Cl)c(Cl)c(Cl)c(Cl)c1-c1c2c(Br)cc(=O)c(Br)c-2oc2c(Br)c(O)cc(Br)c12.[Na+].[Na+] [Acid Red 92, disodium salt of 3,4,5,6-tetrachloro-2-(1,4,5,8-tetrabromo-6-hydroxy-3-oxoxanthen-9-yl)benzoic acid] | greater than 10 g/L | 
O=C([O-])C1=NN(c2ccc(S(=O)(=O)[O-])cc2)C(=O)C1N=Nc1ccc(S(=O)(=O)[O-])cc1.[Na+].[Na+].[Na+] (centres unmarked) [Acid Yellow 23, trisodium salt of 4,5-dihydro-5-oxo-1-(4-sulfophenyl)-4-((4-sulfophenyl)azo)-1H-pyrazole-3-carboxylic acid] |  | highly soluble in water
